Measurements from US20230399623A1, “ARTIFICAL LIVER ORGANOIDS AND METHODS OF THEIR PRODUCTION” (Oslo Universitetssykehus HF, priority 2020, published 2023).

Assays:
[1] = tested on: organoids; assay: Oleic acid accumulation assay (BODIPY lipid staining); type: cell-based, human; conditions: 300 μM, 5 days
Procedure: 1 M Oleic acid (Sigma Aldrich) was diluted with NaOH (Sigma Aldrich) and heated at 70° C. for 30 minutes to form a 20 mM Sodium Oleate solution. This was then diluted with a 5% BSA/PBS solution at 37° C. to form a 5 mM Sodium Oleate/BSA complex. This was further diluted to 300 μM in culture media and incubated with organoids for 5 days, changing the media each day. After the fatty acid treatment, the organoids were then incubated with 3.8 μM BODIPY 493/503 (Life Technologies) for 30 minutes in culture media at 37° C., then washed two times with PBS before replacing with fresh culture media containing DRAQ5 (Thermofisher) at 1:1500. Organoids were then imaged on a confocal as described above.

[2] = tested on: organoids; assay: Heroin metabolism in liver organoids (UPLC-MS/MS); type: in vitro ADME, human; conditions: 10 μM heroin
Procedure: After 21 days differentiation, 50 organoids per well were loaded in triplicate into a 96-well plate and treated with culture media supplemented with 10 μM heroin for 1, 3, 6, and 24 hours. For controls, we used culture media without organoids; these were performed in parallel to measure heroin degradation throughout the experiment. To stop metabolism at each time point the samples were transferred to a new 96-well plate prefilled with formic acid (final conc. 0.1 M) along with internal standards. The samples were centrifuged for 10 minutes at 1000×g at 4° C. The supernatants were transferred to auto-sampler vials and analysed for heroin, morphine, and M3G using an Acquity UPLC system (Waters, Milford, MA) coupled to a Xevo-TQS triple quadrupole mass spectrometer with an electrospray ionization interface (Waters) based on a method previously described 62. Data acquisition, peak integration, and quantification of samples were performed using MassLynx 4.0 SCN509 software (Waters Corp., Milford, MA, USA).
The field of non-CYP450-mediated metabolism has attracted increasing attention as an important player in absorption, distribution, metabolism, and excretion^44. […] We tested if organoids supported heroin metabolism by exposure to 10 μM heroin and quantification by UPLC-MS/MS. […]

[3] = tested on: human liver microsomes and a human S9 fraction; assay: Heroin metabolism in control liver fractions; type: in vitro ADME; conditions: controls: human liver microsomes and human S9 fraction
Excerpt: The field of non-CYP450-mediated metabolism has attracted increasing attention as an important player in absorption, distribution, metabolism, and excretion^44. We investigated liver carboxyl esterases (CES), which are hydrolytic enzymes involved in the metabolism of endogenous esters, ester-containing drugs, pro-drugs and environmental toxicants^45. The CES enzymes also metabolize a wide range of xenobiotic substrates including heroin, which is metabolized by sequential deacetylation (phase I reaction) to 6-monoacetylmorphine (6-MAM) and morphine. Morphine is then glucuronidated, by a phase II reaction via UDP-glucuronosyltransferase (UGT) to morphine-3-glucuronide (M3G). We tested if organoids supported heroin metabolism by exposure to 10 μM heroin and quantification by UPLC-MS/MS. We also compared organoid metabolism to human liver microsomes and a human S9 fraction (unfractionated microsomes and cytosol. The kinetics of metabolism was slower in the organoids we observed phase I metabolism of heroin by CES to morphine in approximately 6 hours, while the controls produced morphine in approximately 12 minutes. However, phase II metabolism (UGT) to morphine glucuronides was detectable in the organoids and absent in the controls.

CCCCCCCC/C=C\CCCCCCCC(=O)O [free fatty acid, Oleic acid]
lipid accumulation in organoids (Bodipy) [1]: massive lipid accumulation

CC(=O)Oc1ccc2c3c1O[C@H]1[C@@H](OC(C)=O)C=C[C@H]4[C@@H](C2)N(C)CC[C@@]341 [heroin]
phase II metabolism (UGT) to morphine glucuronides [2]: detectable | phase II metabolism (UGT) to morphine glucuronides [3]: absent
